The source of these data is patent publication US20070060591A1, “Chemokine receptor binding heterocyclic compounds” (priority 1999, published 2007).

Structures are written as SMILES. Converted amounts (≈) assume the structure as drawn. Where only a bound is given, the exact number is not on record here.

Series [1] can be described thus: in vitro. Type of series: cell-based. The conditions noted are these: human. The procedure: (§1) The compounds of the invention were tested in a screen by the MTT method (J. Virol. Methods […] (1988)). MT-4 cells (2.5×10^4/well) were challenged with HIV-1 (HTLV-IIIB) or HIV-2 (LAV-2 ROD) at a concentration of 100 CCID50 and incubated in the presence of various concentrations of the test compounds, which were added immediately after challenge with the virus. After 5 days culture at 37° C. in a CO2 incubator, the number of viable cells was assessed by the MTT (tetrazolium) method. […] The potential therapeutic usefulness was assessed by calculating a Selectivity Index (SI) corresponding to the ratio of CC50 to EC50.

In series [2] the target is T1, CXCR-4 (Homo sapiens, UniProt P61073).
T1 construct: endogenous in cells; host or cells: SUP-T1 cells
T1 sequence (P61073 whole entry): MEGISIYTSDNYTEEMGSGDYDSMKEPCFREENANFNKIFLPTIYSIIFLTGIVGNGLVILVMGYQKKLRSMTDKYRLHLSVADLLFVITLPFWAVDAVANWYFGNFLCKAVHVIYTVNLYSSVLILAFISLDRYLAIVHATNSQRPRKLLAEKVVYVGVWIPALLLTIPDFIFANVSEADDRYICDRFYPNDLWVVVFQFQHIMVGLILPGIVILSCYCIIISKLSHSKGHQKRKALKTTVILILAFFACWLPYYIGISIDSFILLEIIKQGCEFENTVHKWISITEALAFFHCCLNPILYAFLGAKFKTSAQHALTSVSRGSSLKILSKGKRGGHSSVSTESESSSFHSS
The series is described as follows: Inhibition of mAb 12G5 binding to CXCR-4 in SUP-T1 cells.

Series [3] concerns HIV-1 (HTLV-IIIB). The series is described as follows: microbe, parasite or virus in culture. The format is cell-based. Conditions: MT-4 cells. As to the method:
as §1

The test system of series [4] is HIV-2 (LAV-2 ROD). Description: Anti-HIV-2 screen by the MTT method in MT-4 cells. The format is cell-based. The conditions noted are these: Human immunodeficiency virus 2, MT4, 120 h, 100 CCID50, 5 days. The procedure:
as §1

Series [5] has as its target T1, CXCR-4. Description: Inhibition of signal transduction (Ca2+ flux) induced by SDF-1α binding to CXCR-4 on SUP-T1 cells. The format is cell-based. Conditions: SDF-1α induced. In general terms: Calcium flux is commonly read through the fluorescence of an indicator in the cells.

As usually defined, the CC50 is the concentration that lowers cell viability or growth by half. High values mean lower toxicity to the cells, low ones greater toxicity to the cells. Usually IC50 stands for the point on the concentration scale where inhibition reaches its midpoint. A higher IC50 goes with a need for much substance. The term EC50 denotes the concentration at which the effect is half-maximal. For `c1ccc(CNCc2ccc(CN3CCCNCCNCCCNCC3)cc2)nc1` [AMD3465, N-[1,4,8,11-Tetraazacyclotetradecanyl-1,4-phenylenebis(methylene)]-2-(amino-methyl)pyridine], the CC50 at 5 days in series [1] was > 250 µg/mL. Further, the figures for the IC50 in series [2] and in series [5] were 7.31 nM and 2.44 nM, respectively. In addition, the “SI HIV-1 (Selectivity Index, ratio of CC50 to EC50)” value in series [3] (HIV-1 (IIIB)) is 3 × 10^4. For the same compound, the EC50 came out at 0.008 µg/mL (≈ 0.0195 µM) in series [3] (Human immunodeficiency virus 1, IIIB, MT4, 120 h, 100 CCID50, 5 days, MTT) and 0.032 µg/mL (≈ 0.0779 µM) in series [4].
